From PMC11945486, “TAS1R2/TAS1R3 Single-Nucleotide Polymorphisms Affect Sweet Taste Receptor Activation by Sweeteners: The SWEET Project” (Nutrients, 2025)
No end group written: not given here.

Biological target: T1, mTAS1R2-WT/mTAS1R3-WT (Mus musculus, UniProt Q925D8+Q925I4)
T1 construct: expressed in transfected cells; host or cells: HEK293T-Gα16gust44
T1 sequence (Q925I4 20-843): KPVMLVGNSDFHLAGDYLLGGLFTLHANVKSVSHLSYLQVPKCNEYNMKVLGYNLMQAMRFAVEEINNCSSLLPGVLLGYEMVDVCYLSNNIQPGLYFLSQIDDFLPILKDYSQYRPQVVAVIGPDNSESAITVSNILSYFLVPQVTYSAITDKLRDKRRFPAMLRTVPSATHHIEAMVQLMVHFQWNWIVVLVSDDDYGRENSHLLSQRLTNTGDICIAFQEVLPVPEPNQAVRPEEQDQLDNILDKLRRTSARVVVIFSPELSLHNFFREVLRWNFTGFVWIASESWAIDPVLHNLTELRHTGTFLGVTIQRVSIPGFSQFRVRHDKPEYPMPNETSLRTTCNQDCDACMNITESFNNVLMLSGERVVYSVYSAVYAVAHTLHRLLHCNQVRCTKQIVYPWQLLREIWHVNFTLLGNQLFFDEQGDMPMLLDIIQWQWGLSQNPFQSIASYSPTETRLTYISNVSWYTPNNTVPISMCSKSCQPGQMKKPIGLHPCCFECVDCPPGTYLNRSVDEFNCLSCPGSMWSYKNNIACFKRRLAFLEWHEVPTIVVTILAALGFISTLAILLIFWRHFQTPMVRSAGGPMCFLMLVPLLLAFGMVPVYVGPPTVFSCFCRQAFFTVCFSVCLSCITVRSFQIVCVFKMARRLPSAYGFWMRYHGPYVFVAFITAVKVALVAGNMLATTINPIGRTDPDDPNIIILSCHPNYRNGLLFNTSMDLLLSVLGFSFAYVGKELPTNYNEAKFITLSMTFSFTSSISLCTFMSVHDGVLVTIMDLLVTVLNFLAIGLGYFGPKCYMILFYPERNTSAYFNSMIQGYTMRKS
T1 sequence (Q925D8 21-858): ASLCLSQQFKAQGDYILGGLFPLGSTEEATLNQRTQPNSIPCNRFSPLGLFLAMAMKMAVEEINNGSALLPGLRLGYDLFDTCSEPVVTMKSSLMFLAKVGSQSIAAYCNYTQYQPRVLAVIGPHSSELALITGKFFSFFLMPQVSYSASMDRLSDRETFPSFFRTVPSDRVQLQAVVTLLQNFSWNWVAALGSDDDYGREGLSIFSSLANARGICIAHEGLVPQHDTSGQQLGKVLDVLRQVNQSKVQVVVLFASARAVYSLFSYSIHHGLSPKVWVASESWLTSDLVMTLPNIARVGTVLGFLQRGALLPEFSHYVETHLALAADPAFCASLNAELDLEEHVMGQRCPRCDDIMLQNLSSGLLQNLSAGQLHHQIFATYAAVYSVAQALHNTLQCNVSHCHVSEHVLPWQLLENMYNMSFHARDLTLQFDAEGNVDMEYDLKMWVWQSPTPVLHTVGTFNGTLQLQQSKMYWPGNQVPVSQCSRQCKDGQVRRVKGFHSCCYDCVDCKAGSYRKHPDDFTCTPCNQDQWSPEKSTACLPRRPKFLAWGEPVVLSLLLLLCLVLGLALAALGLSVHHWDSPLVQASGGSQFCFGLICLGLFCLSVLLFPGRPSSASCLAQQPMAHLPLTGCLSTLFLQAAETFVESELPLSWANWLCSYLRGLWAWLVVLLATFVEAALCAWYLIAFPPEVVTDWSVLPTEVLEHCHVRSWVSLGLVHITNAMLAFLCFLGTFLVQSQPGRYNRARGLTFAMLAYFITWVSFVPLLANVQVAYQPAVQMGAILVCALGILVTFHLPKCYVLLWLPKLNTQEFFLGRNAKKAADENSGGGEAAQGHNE
Assay: Calcium mobilisation assay, HEK293T-Gα16gust44 cells, mouse sweet taste receptor WT
Assay type: cell-based
Details: for EC50 / Max ΔF/F0: mTAS1R2-WT + mTAS1R3-WT, "-": no activation; for Max ΔF/F0: maximal signal amplitude; for activation of the mouse sweet taste receptor: result in words
Protocol: The HEK293T cells were kindly provided by Jay P. Slack (Givaudan Flavors Corporation; Cincinnati, OH, USA). HEK293T cells stably transfected with Gα16gust44 [43, 67] were seeded in poly-D-lysine-coated clear-bottom black 96-well plates (0.35 × 10^5 cells/well) in high-glucose DMEM supplemented with 2 mM GlutaMAX, 10% dialysed foetal bovine serum with penicillin/streptomycin and G418 (400 μg/mL) at 37 °C and 6.3% CO2 in a humidified atmosphere as previously reported. […] As a negative control, HEK293T cells were mock-transfected with the empty expression vector. After a further 24 h of incubation, the HEK293T cells were washed with C1 buffer (130 mM NaCl, 5 mM KCl, 10 mM HEPES pH 7.4 and 2 mM CaCl2). The 96-well plates containing the cells were then stimulated with sweet-tasting compounds. […] Different concentration ranges were tested depending on the sweet compound injected. The Ca^2+ changes were expressed as fractional changes in fluorescent light intensity: ΔF/F = (F − F0)/F0, where F was the fluorescent light intensity at each point, and F0 was the value of emitted fluorescent light prior to stimulus application. To calculate dose–response relationships, the changes in fluorescence upon stimulus application were averaged, mock-subtracted and baseline-corrected. The dose–response data obtained were adjusted using a 4-parameter logistic equation. The half-maximal effective concentrations (EC50 values) and maximal signal amplitudes were calculated using SigmaPlot software (version 15.0) (Systat Software; San Jose, CA, USA).
HEK293T-Gα16gust44 cells were transiently cotransfected with pcDNA6-MAX-mTAS1R2-FLAG, pcDNA4-MAX-mTAS1R3-WT-FLAG or pcDNA4-MAX-mTAS1R3-I60T-FLAG, and pCMV-GCaMP5G as previously described in detail. After 24 h, the cells were washed with C1 buffer and stimulated with a logarithmically increasing range of sweetener concentrations. Calcium responses during automated application were monitored using a FlexStation®3 Multi-Mode microplate reader. The dose–response curves, EC50 values and maximal signal amplitudes were calculated as previously described.
For in vitro calcium mobilisation assay performed on hTAS1R2-SNPs, hTAS1R3-SNPs and mTAS1R3-I60T, 6 to 7 concentrations were tested for each sweet compound, plus buffer alone. All concentration–receptor combinations were measured in duplicate, and each experiment was repeated at least 4 times (8 wells/concentration). Results were expressed for each concentration as ΔF/F mean ± SEM and represented as dose–response curves.

Molecule	EC50 [µM]	Max ΔF/F0	activation of the mouse sweet taste receptor
O=S(=O)(O)NC1CCCCC1 [Cyclamate, cyclamate]			not activated
C[C@H](CC[C@@H](O[C@@H]1O[C@H](CO[C@@H]2O[C@H](CO)[C@@H](O)[C@H](O)[C@H]2O)[C@@H](O)[C@H](O)[C@H]1O[C@@H]1O[C@H](CO)[C@@H](O)[C@H](O)[C@H]1O)C(C)(C)O)[C@H]1CC[C@@]2(C)[C@@H]3CC=C4[C@@H](CC[C@H](O[C@@H]5O[C@H](CO[C@@H]6O[C@H](CO)[C@@H](O)[C@H](O)[C@H]6O)[C@@H](O)[C@H](O)[C@H]5O)C4(C)C)[C@]3(C)[C@H](O)C[C@]12C [Mogroside V, mogroside V]	133 ± 6	0.84 ± 0.02	
COc1ccc(CCC(=O)c2c(O)cc(O[C@@H]3O[C@H](CO)[C@@H](O)[C@H](O)[C@H]3O[C@@H]3O[C@@H](C)[C@H](O)[C@@H](O)[C@H]3O)cc2O)cc1O [NHDC, neohesperidin dihydrochalcone]			not activated
COC(=O)[C@H](Cc1ccccc1)NC(=O)[C@H](CC(=O)O)NCCC(C)(C)C [Neotame]			not activated

Second part, the molecule after the results:

EC50 [µM]	Max ΔF/F0	activation of the mouse sweet taste receptor	Molecule
439 ± 10	1.63 ± 0.02		CC1=CC(=O)NS(=O)(=O)O1 [Acesulfame K, acesulfame K]
		not activated	C=C(C)[C@@H]1CC=C(/C=N/O)CC1 [Perillartine, perillartine]
44 ± 4	1.41 ± 0.05		C=C1C[C@@]23CC[C@H]4[C@@](C)(CCC[C@@]4(C)C(=O)O[C@@H]4O[C@H](CO)[C@@H](O)[C@H](O[C@@H]5O[C@H](CO)[C@@H](O)[C@H](O)[C@H]5O)[C@H]4O[C@@H]4O[C@H](CO)[C@@H](O)[C@H](O)[C@H]4O)[C@@H]2CC[C@]1(O[C@@H]1O[C@H](CO)[C@@H](O)[C@H](O[C@@H]2O[C@H](CO)[C@@H](O)[C@H](O)[C@H]2O)[C@H]1O[C@@H]1O[C@H](CO)[C@@H](O)[C@H](O)[C@H]1O)C3 [Rebaudioside M, rebaudioside M]
778 ± 22	2.03 ± 0.02		OC[C@H]1O[C@H](O[C@]2(CCl)O[C@H](CCl)[C@@H](O)[C@@H]2O)[C@H](O)[C@@H](O)[C@H]1Cl [Sucralose]
		not activated	brazzein (QDKCKKVYENYPVSKCQLANQCNYDCKLDKHARSGECFYDEKRNLQCICDYCEY; ends and bridges not checked; cysteine pairing not given here; UniProt P56552 1-54, looked up) [sweet-tasting protein obtained by recombinant production using the yeast Pichia pastoris]
		not activated	thaumatin
